Assay results reported in the supplement of paper PMC13207355.
Counter-ions that a name gives are not always drawn.

Tests used:
Settings in all cases: exposure time: 72 h
E13 [1] = patient-derived glioblastoma stem cells of classical subtype; experiment: surviving fraction (nuclei count normalised to DMSO); higher = more cells surviving (less toxic)
E21 [2] = patient-derived glioblastoma stem cells of mesenchymal subtype; experiment: as above
E28 [3] = patient-derived glioblastoma stem cells of classical subtype; experiment: as above
E31 [4] = patient-derived glioblastoma stem cells of proneural subtype; experiment: as above
E34 [5] = patient-derived glioblastoma stem cells of proneural subtype; experiment: as above
E57 [6] = patient-derived glioblastoma stem cells of mesenchymal subtype; experiment: as above
FT3469 [7] = normal neural stem cell line; experiment: as above
E13 [8] = experiment: phenotypic distance (Euclidean, principal components) from DMSO controls (arbitrary units); higher = stronger morphological change
E21 [9] = experiment: as above
E28 [10] = experiment: as above
E31 [11] = experiment: as above
E34 [12] = experiment: as above
E57 [13] = experiment: as above
FT3469 [14] = experiment: as above
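Wherever phenotypic distance (Euclidean, principal components) from DMSO controls is given: cell Painting imaging in 384-well plates, CellProfiler features reduced to at least 20 principal components, Euclidean distance versus same-plate DMSO vehicle wells (0.1% v/v), median over six images per well.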
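Wherever surviving fraction (nuclei count normalised to DMSO) is given: nuclei counted by high-content imaging of Hoechst-stained cells in laminin-coated 384-well plates, relative to 0.1% DMSO vehicle wells, with staurosporine as cell-death control.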

CCC[C@@H]1C[C@@H](C(=O)N[C@@H]([C@H]2O[C@H](SC)[C@H](O)[C@@H](O)[C@H]2O)[C@@H](C)O)N(C)C1 [Lincomycin hydrochloride]
Settings | phenotypic distance | surviving fraction
E13 [1], 4.1 nM | – | 0.937
E13 [1], 12.3 nM | – | 0.912
E13 [1], 37 nM | – | 0.891
E13 [1], 111.1 nM | – | 0.967
E13 [1], 333.3 nM | – | 1.07
E13 [1], 1000 nM | – | 1.1
E13 [1], 3000 nM | – | 0.894
E13 [8], 4.1 nM | 0.648 | –
E13 [8], 12.3 nM | 0.534 | –
E13 [8], 37 nM | 0.423 | –
E13 [8], 111.1 nM | 0.641 | –
E13 [8], 333.3 nM | 0.442 | –
E13 [8], 1000 nM | 0.768 | –
E13 [8], 3000 nM | 0.427 | –
E21 [2], 4.1 nM | – | 0.94
E21 [2], 12.3 nM | – | 0.873
E21 [2], 37 nM | – | 0.963
E21 [2], 111.1 nM | – | 0.936
E21 [2], 333.3 nM | – | 0.972
E21 [2], 1000 nM | – | 0.984
E21 [2], 3000 nM | – | 0.94
E21 [9], 4.1 nM | 0.423 | –
E21 [9], 12.3 nM | 0.813 | –
E21 [9], 37 nM | 0.629 | –
E21 [9], 111.1 nM | 0.635 | –
E21 [9], 333.3 nM | 0.696 | –
E21 [9], 1000 nM | 0.667 | –
E21 [9], 3000 nM | 0.478 | –
E28 [3], 4.1 nM | – | 1.05
E28 [3], 12.3 nM | – | 1.04
E28 [3], 37 nM | – | 1.08
E28 [3], 111.1 nM | – | 0.956
E28 [3], 333.3 nM | – | 1.12
E28 [3], 1000 nM | – | 1.12
E28 [3], 3000 nM | – | 1.03
E28 [10], 4.1 nM | 0.634 | –
E28 [10], 12.3 nM | 0.929 | –
E28 [10], 37 nM | 1.11 | –
E28 [10], 111.1 nM | 0.703 | –
E28 [10], 333.3 nM | 0.726 | –
E28 [10], 1000 nM | 0.598 | –
E28 [10], 3000 nM | 0.576 | –
E31 [4], 4.1 nM | – | 1.03
E31 [4], 12.3 nM | – | 0.994
E31 [4], 37 nM | – | 1.03
E31 [4], 111.1 nM | – | 1.15
E31 [4], 333.3 nM | – | 1.1
E31 [4], 1000 nM | – | 1.21
E31 [4], 3000 nM | – | 0.936
E31 [11], 4.1 nM | 0.488 | –
E31 [11], 12.3 nM | 0.574 | –
E31 [11], 37 nM | 0.621 | –
E31 [11], 111.1 nM | 0.44 | –
E31 [11], 333.3 nM | 0.659 | –
E31 [11], 1000 nM | 0.74 | –
E31 [11], 3000 nM | 0.788 | –
E34 [5], 4.1 nM | – | 0.988
E34 [5], 12.3 nM | – | 0.937
E34 [5], 37 nM | – | 0.909
E34 [5], 111.1 nM | – | 1.09
E34 [5], 333.3 nM | – | 1.11
E34 [5], 1000 nM | – | 1.25
E34 [5], 3000 nM | – | 0.902
E34 [12], 4.1 nM | 0.57 | –
E34 [12], 12.3 nM | 0.706 | –
E34 [12], 37 nM | 0.876 | –
E34 [12], 111.1 nM | 1.02 | –
E34 [12], 333.3 nM | 0.802 | –
E34 [12], 1000 nM | 0.879 | –
E34 [12], 3000 nM | 0.674 | –
E57 [6], 4.1 nM | – | 1.09
E57 [6], 12.3 nM | – | 1.08
E57 [6], 37 nM | – | 0.957
E57 [6], 111.1 nM | – | 1.07
E57 [6], 333.3 nM | – | 0.959
E57 [6], 1000 nM | – | 0.997
E57 [6], 3000 nM | – | 0.976
E57 [13], 4.1 nM | 0.854 | –
E57 [13], 12.3 nM | 1.06 | –
E57 [13], 37 nM | 0.755 | –
E57 [13], 111.1 nM | 0.617 | –
E57 [13], 333.3 nM | 0.478 | –
E57 [13], 1000 nM | 0.463 | –
E57 [13], 3000 nM | 0.394 | –
FT3469 [7], 4.1 nM | – | 0.948
FT3469 [7], 12.3 nM | – | 0.951
FT3469 [7], 37 nM | – | 0.828
FT3469 [7], 111.1 nM | – | 1.15
FT3469 [7], 333.3 nM | – | 1.1
FT3469 [7], 1000 nM | – | 1.08
FT3469 [7], 3000 nM | – | 1.08
FT3469 [14], 4.1 nM | 0.783 | –
FT3469 [14], 12.3 nM | 0.977 | –
FT3469 [14], 37 nM | 0.592 | –
FT3469 [14], 111.1 nM | 0.704 | –
FT3469 [14], 333.3 nM | 0.658 | –
FT3469 [14], 1000 nM | 1.03 | –
FT3469 [14], 3000 nM | 0.496 | –

C[C@H]1Oc2cc(cnc2N)-c2c(nn(C)c2C#N)CN(C)C(=O)c2ccc(F)cc21 [Lorlatinib]
Settings | phenotypic distance | surviving fraction
E13 [1], 4.1 nM | – | 1.03
E13 [1], 12.3 nM | – | 0.961
E13 [1], 37 nM | – | 1.08
E13 [1], 111.1 nM | – | 1.08
E13 [1], 333.3 nM | – | 1.11
E13 [1], 1000 nM | – | 1
E13 [1], 3000 nM | – | 1.01
E13 [8], 4.1 nM | 0.964 | –
E13 [8], 12.3 nM | 0.749 | –
E13 [8], 37 nM | 1.19 | –
E13 [8], 111.1 nM | 0.958 | –
E13 [8], 333.3 nM | 0.954 | –
E13 [8], 1000 nM | 1.09 | –
E13 [8], 3000 nM | 0.943 | –
E21 [2], 4.1 nM | – | 0.887
E21 [2], 12.3 nM | – | 0.918
E21 [2], 37 nM | – | 0.876
E21 [2], 111.1 nM | – | 0.918
E21 [2], 333.3 nM | – | 0.862
E21 [2], 1000 nM | – | 0.924
E21 [2], 3000 nM | – | 0.768
E21 [9], 4.1 nM | 0.926 | –
E21 [9], 12.3 nM | 2.32 | –
E21 [9], 37 nM | 1.09 | –
E21 [9], 111.1 nM | 0.89 | –
E21 [9], 333.3 nM | 1.37 | –
E21 [9], 1000 nM | 1.41 | –
E21 [9], 3000 nM | 1.96 | –
E28 [3], 4.1 nM | – | 1.11
E28 [3], 12.3 nM | – | 1.02
E28 [3], 37 nM | – | 1.05
E28 [3], 111.1 nM | – | 0.843
E28 [3], 333.3 nM | – | 0.913
E28 [3], 1000 nM | – | 1.07
E28 [3], 3000 nM | – | 0.911
E28 [10], 4.1 nM | 1.06 | –
E28 [10], 12.3 nM | 0.784 | –
E28 [10], 37 nM | 1.27 | –
E28 [10], 111.1 nM | 1.47 | –
E28 [10], 333.3 nM | 1.29 | –
E28 [10], 1000 nM | 1.31 | –
E28 [10], 3000 nM | 1.79 | –
E31 [4], 4.1 nM | – | 1.23
E31 [4], 12.3 nM | – | 0.867
E31 [4], 37 nM | – | 1.06
E31 [4], 111.1 nM | – | 0.986
E31 [4], 333.3 nM | – | 1.17
E31 [4], 1000 nM | – | 1.08
E31 [4], 3000 nM | – | 1.01
E31 [11], 4.1 nM | 0.873 | –
E31 [11], 12.3 nM | 1.38 | –
E31 [11], 37 nM | 2.47 | –
E31 [11], 111.1 nM | 0.874 | –
E31 [11], 333.3 nM | 1.08 | –
E31 [11], 1000 nM | 1.32 | –
E31 [11], 3000 nM | 1.4 | –
E34 [5], 4.1 nM | – | 1.02
E34 [5], 12.3 nM | – | 0.994
E34 [5], 37 nM | – | 0.939
E34 [5], 111.1 nM | – | 1.09
E34 [5], 333.3 nM | – | 0.999
E34 [5], 1000 nM | – | 1.1
E34 [5], 3000 nM | – | 0.792
E34 [12], 4.1 nM | 0.575 | –
E34 [12], 12.3 nM | 0.814 | –
E34 [12], 37 nM | 1.28 | –
E34 [12], 111.1 nM | 0.761 | –
E34 [12], 333.3 nM | 1.2 | –
E34 [12], 1000 nM | 0.726 | –
E34 [12], 3000 nM | 1.84 | –
E57 [6], 4.1 nM | – | 0.87
E57 [6], 12.3 nM | – | 0.808
E57 [6], 37 nM | – | 0.891
E57 [6], 111.1 nM | – | 0.816
E57 [6], 333.3 nM | – | 0.815
E57 [6], 1000 nM | – | 0.794
E57 [6], 3000 nM | – | 0.757
E57 [13], 4.1 nM | 2.11 | –
E57 [13], 12.3 nM | 3.34 | –
E57 [13], 37 nM | 2.79 | –
E57 [13], 111.1 nM | 3.21 | –
E57 [13], 333.3 nM | 2.46 | –
E57 [13], 1000 nM | 2.74 | –
E57 [13], 3000 nM | 2.66 | –
FT3469 [7], 4.1 nM | – | 0.89
FT3469 [7], 12.3 nM | – | 1.1
FT3469 [7], 37 nM | – | 0.999
FT3469 [7], 111.1 nM | – | 0.981
FT3469 [7], 333.3 nM | – | 1.03
FT3469 [7], 1000 nM | – | 1.06
FT3469 [7], 3000 nM | – | 0.834
FT3469 [14], 4.1 nM | 1.48 | –
FT3469 [14], 12.3 nM | 0.861 | –
FT3469 [14], 37 nM | 1.31 | –
FT3469 [14], 111.1 nM | 0.981 | –
FT3469 [14], 333.3 nM | 1.15 | –
FT3469 [14], 1000 nM | 0.901 | –
FT3469 [14], 3000 nM | 1.54 | –
